The text below walks through data of patent publication US11691962B2 (eXIthera Pharmaceuticals, Inc., priority 2018, dated 2023).

The term IC50 denotes the concentration that inhibits the measured activity by half.

The target in this assay is Factor XIa (Homo sapiens (Human), UniProt P03951). The assay is described as follows: Factor XIa enzyme inhibition assay (dose response, fluorogenic AMC substrate). It is filed as biochemical. The conditions noted are these: read-out: hFXIa IC50. As to the method: • Assay buffer: 20 mM Hepes, pH 7.4; 150 mM NaCl; 0.02% Tween 20 • Compounds: 10 mM stocks in DMSO • Substrate: 20 mM Glp-Pro-Arg-AMC, 25 mg/2.3 mL H2O (store at +4° C.) [Factor XIa, thrombin, and trypsin] • 20 mM Pro-Phe-Arg-AMC (Bachem I-1295), 25 mg/2.2 mL H2O • or Boc-Leu-Gly-Arg-AMC (Bachem I-1105), 25 mg/2.07 mL H2O • (store at +4° C.) [Factor Xa] • Enzyme: Factor XIa; 0.25 μM in 50% glycerol (20 μg/mL) • Trypsin; 0.2 μM in 50% glycerol (4.8 μg/mL) • Thrombin; 0.2 μM in 50% glycerol (7.34 μg/mL) • Factor Xa; 0.2 μM in 50% glycerol (9.2 μg/mL) • These stocks are aliquoted (˜100 μL/aliquot) and stored at −20° C. Methods: • 1. Dilute the substrate to 100 μM in assay buffer (30 μL/6 mL). The enzyme is diluted to 0.5 nM just prior to use (12 μL/6 mL for Factor XIa; 15 μL/6 mL for all of the rest.) • 2. Pipette 50 μL of substrate into each well of the 96 well (12×8) microtiter plate. (Column 1 is used as the 100% activity control and receives no compound, and Column 12 is the blank and receives no enzyme.) Add an additional 46 μL to column 2. • 3. Pipette 4 μL of each compound into the appropriate well in column 2 of the plate (unknowns assayed in triplicate, standard assayed in duplicate). The final compound concentration will be […] of the stock. • 4. Serially two-fold dilute the compound by mixing the sample in column 2, removing 50 μL to the next well (column 3), mix and remove to column 4, etc. until column 11. After mixing column 11, remove 50 μL and discard. • 5. Pipette 50 μL of buffer into column 12. Initiate the reaction by adding 50 μL of enzyme solution to each well of columns 1-11 as rapidly as possible. • 6. Read the plate in a spectrophotometer (SpectraMax) at 30° C., wherein each well is measured every 60 s for 30 min. For Factor Xa assays, each well is measured every 1 min for a total of 60 min. • 7. For Factor XIa assays, the compounds are assayed, in duplicate, at 3 different starting concentrations, 20, 2, and 0.2 μM; 1:10, 1:100, and 1:1000 dilution of 10 mM stock or at 2, 0.2, and 0.02 μM; 1:100, 1:1000, and 1:10,000 dilution of 10 mM stock. Data for each concentration are combined for graphing and data fitting. • 8. Data can be used both for estimation of IC50 and for estimation of Kon.
Factor XIa, sequence (P03951 388-625): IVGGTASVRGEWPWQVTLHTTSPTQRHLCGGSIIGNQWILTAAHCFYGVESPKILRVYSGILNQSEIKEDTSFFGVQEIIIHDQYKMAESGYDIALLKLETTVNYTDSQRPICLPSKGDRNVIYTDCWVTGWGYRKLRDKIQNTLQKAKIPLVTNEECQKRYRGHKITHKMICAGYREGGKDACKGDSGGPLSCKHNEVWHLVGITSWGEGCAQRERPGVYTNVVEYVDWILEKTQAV
Factor XIa, sequence (P03951 19-387 partner): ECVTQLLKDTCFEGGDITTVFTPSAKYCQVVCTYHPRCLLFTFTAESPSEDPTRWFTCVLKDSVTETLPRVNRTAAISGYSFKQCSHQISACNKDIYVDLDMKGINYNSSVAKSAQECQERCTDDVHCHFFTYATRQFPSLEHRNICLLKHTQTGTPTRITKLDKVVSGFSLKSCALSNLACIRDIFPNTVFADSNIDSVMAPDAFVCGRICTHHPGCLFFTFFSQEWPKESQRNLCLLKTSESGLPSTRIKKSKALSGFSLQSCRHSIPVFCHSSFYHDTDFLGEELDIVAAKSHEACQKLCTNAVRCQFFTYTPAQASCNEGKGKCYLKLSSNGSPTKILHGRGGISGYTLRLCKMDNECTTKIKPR
Potential inhibitors of Factor XIa were evaluated using the following assay.
PyroGlu-Pro-Arg-7-methylaminocourin (AMC), available from CPC Scientific, Inc., is based on the substrate pyro-Glu-Pro-Arg-pNA (S-2366), available from Diapharma Group, Inc. (Columbus, Ohio), wherein the p-nitroanaline group is replaced with 7-methylaminocoumarin (AMC).
The final concentration of the substrate in the assay was 50 μM, and the final concentration of the enzyme was 0.25 nM. Inhibitors were tested by serial dilution over an appropriate range to yield a dose response curve for determination of the inhibitors' IC50 value. The assay mixture was read every minute for 30 minutes in order to generate progress curves. The plates were read in a Spectramax m5 Multimode Plate Reader (Molecular Devices LLC, Sunnyvale, Calif.). Dose response curves were fit to Equation 1 below in which A is the maximum inhibition, B is the minimum inhibition, C is the IC50, and D is the Hill coefficient. Y=[(A−B)/(1+(X/C)^D)]+B (Equation 1)
`CC[C@@H](NC(=O)N1C(=O)[C@H](Cc2ccnc(N)c2)[C@H]1C(=O)N(C)c1nccn1C)c1ccc(Cl)cc1C` [Compound 1-118, (2S,3R)-3-((2-aminopyridin-4-yl)methyl)-N2-(1-methyl-1H-imidazol-2-yl)-N1-((R)-1-(4-chloro-2-methylphenyl)propyl)-N2-methyl-4-oxoazetidine-1,2-dicarboxamide]: the IC50 is less than 10 nM.
To `CC[C@@H](NC(=O)N1C(=O)[C@H](Cc2ccnc(N)c2)[C@H]1C(=O)N(C)c1nccn1C)c1ccc(C)cc1F` [Compound 1-119, (2S,3R)-3-((2-aminopyridin-4-yl)methyl)-N2-(1-methyl-1H-imidazol-2-yl)-N1-((R)-1-(2-fluoro-4-methylphenyl)propyl)-N2-methyl-4-oxoazetidine-1,2-dicarboxamide] belongs less than 10 nM; to `CC[C@@H](NC(=O)N1C(=O)[C@H](Cc2ccnc(N)c2)[C@H]1C(=O)N(C)c1nccn1C)C1CCCCO1` (stereo partly drawn) [Compound 1-121, (2S,3R)-3-((2-aminopyridin-4-yl)methyl)-N2-(1-methyl-1H-imidazol-2-yl)-N1-((R)-1-(oxan-2-yl)propyl)-N2-methyl-4-oxoazetidine-1,2-dicarboxamide], 10 to 100 nM.
The value for `CC[C@@H](NC(=O)N1C(=O)[C@H](Cc2ccnc(N)c2)[C@H]1C(=O)N(C)c1nccn1C)C1CCOCC1` [Compound 1-122, (2S,3R)-3-((2-aminopyridin-4-yl)methyl)-N2-(1-methyl-1H-imidazol-2-yl)-N1-((R)-1-(oxan-4-yl)propyl)-N2-methyl-4-oxoazetidine-1,2-dicarboxamide] was 10 to 100 nM.
To `CC[C@@H](NC(=O)N1C(=O)[C@H](Cc2ccnc(N)c2)[C@H]1C(=O)N(C)c1ccn(C)n1)c1ccc(C)cc1` [Compound 1-124, (2S,3R)-3-((2-aminopyridin-4-yl)methyl)-N2-(1-methyl-1H-pyrazol-3-yl)-N1-((R)-1-(4-methylphenyl)propyl)-N2-methyl-4-oxoazetidine-1,2-dicarboxamide] belongs less than 10 nM; to `CC[C@@H](NC(=O)N1C(=O)[C@H](Cc2ccnc(N)c2)[C@H]1C(=O)N(C)c1nccn1C)C1CCCOC1` (stereo partly drawn) [Compound 1-126, (2S,3R)-3-((2-aminopyridin-4-yl)methyl)-N2-(1-methyl-1H-imidazol-2-yl)-N1-((R)-1-(oxan-3-yl)propyl)-N2-methyl-4-oxoazetidine-1,2-dicarboxamide], 10 to 100 nM.
In the case of `CC[C@@H](NC(=O)N1C(=O)[C@H](Cc2ccnc(N)c2)[C@H]1C(=O)N(C)c1ccn(C)n1)c1ccccc1C` [Compound 1-130, (2S,3R)-3-((2-aminopyridin-4-yl)methyl)-N2-(1-methyl-1H-pyrazol-3-yl)-N1-((R)-1-(2-methylphenyl)propyl)-N2-methyl-4-oxoazetidine-1,2-dicarboxamide], the IC50 was less than 10 nM.
The value for `CC[C@@H](NC(=O)N1C(=O)[C@H](Cc2ccnc(N)c2)[C@H]1C(=O)N(C)C1=NC(=O)CN1C)c1ccccc1` [Compound 1-131, (2S,3R)-3-((2-aminopyridin-4-yl)methyl)-N2-(4-oxo-1-methyl-4,5-dihydro-1H-imidazol-2-yl)-N1-((R)-1-phenylpropyl)-N2-methyl-4-oxoazetidine-1,2-dicarboxamide] was 10 to 100 nM.
For `CC[C@@H](NC(=O)N1C(=O)[C@H](Cc2ccnc(N)c2)[C@H]1C(=O)N(C)c1ccn(C)n1)c1cc(C)ccc1C` [Compound 1-132, (2S,3R)-3-((2-aminopyridin-4-yl)methyl)-N2-(1-methyl-1H-pyrazol-3-yl)-N1-((R)-1-(2,5-dimethylphenyl)propyl)-N2-methyl-4-oxoazetidine-1,2-dicarboxamide], the IC50 is less than 10 nM.
To `CC[C@@H](NC(=O)N1C(=O)[C@H](Cc2ccnc(N)c2)[C@H]1C(=O)N(C)c1ccn(C)n1)c1ccccc1F` [Compound 1-133, (2S,3R)-3-((2-aminopyridin-4-yl)methyl)-N2-(1-methyl-1H-pyrazol-3-yl)-N1-((R)-1-(2-fluorophenyl)propyl)-N2-methyl-4-oxoazetidine-1,2-dicarboxamide] belongs 10 to 100 nM; to `CC[C@@H](NC(=O)N1C(=O)[C@H](Cc2ccnc(N)c2)[C@H]1C(=O)N(C)c1ccn(C)n1)c1cc(F)ccc1C` [Compound 1-135, (2S,3R)-3-((2-aminopyridin-4-yl)methyl)-N2-(1-methyl-1H-pyrazol-3-yl)-N1-((R)-1-(5-fluoro-2-methylphenyl)propyl)-N2-methyl-4-oxoazetidine-1,2-dicarboxamide], less than 10 nM; to `CC[C@@H](NC(=O)N1C(=O)[C@H](Cc2ccnc(N)c2)[C@H]1C(=O)N(C)c1ccn(C)n1)c1cccc(Cl)c1C` [Compound 1-138, (2S,3R)-3-((2-aminopyridin-4-yl)methyl)-N2-(1-methyl-1H-pyrazol-3-yl)-N1-((R)-1-(3-chloro-2-methylphenyl)propyl)-N2-methyl-4-oxoazetidine-1,2-dicarboxamide], less than 10 nM.
To `CC[C@@H](NC(=O)N1C(=O)[C@H](Cc2cc(C)nc(N)c2)[C@H]1C(=O)N(C)C1=NC(=O)CN1C)c1ccccc1` [Compound 1-139, (2S,3R)-3-((2-amino-6-methylpyridin-4-yl)methyl)-N2-(4-oxo-1-methyl-4,5-dihydro-1H-imidazol-2-yl)-N1-((R)-1-phenylpropyl)-N2-methyl-4-oxoazetidine-1,2-dicarboxamide] belongs 10 to 100 nM; to `CC[C@@H](NC(=O)N1C(=O)[C@H](Cc2ccnc(N)c2)[C@H]1C(=O)N(C)c1ccn(C)n1)c1cccc(C)c1C` [Compound 1-140, (2S,3R)-3-((2-aminopyridin-4-yl)methyl)-N2-(1-methyl-1H-pyrazol-3-yl)-N1-((R)-1-(2,3-dimethylphenyl)propyl)-N2-methyl-4-oxoazetidine-1,2-dicarboxamide], less than 10 nM; to `CC[C@@H](NC(=O)N1C(=O)[C@H](Cc2ccnc(N)c2)[C@H]1C(=O)N(C)c1ccn(C)n1)c1cc(Cl)ccc1C` [Compound 1-141, (2S,3R)-3-((2-aminopyridin-4-yl)methyl)-N2-(1-methyl-1H-pyrazol-3-yl)-N1-((R)-1-(5-chloro-2-methylphenyl)propyl)-N2-methyl-4-oxoazetidine-1,2-dicarboxamide], less than 10 nM.
The value for `CC[C@@H](NC(=O)N1C(=O)[C@H](Cc2cc(C)nc(N)c2)[C@H]1C(=O)N(C)c1ccn(C)n1)c1ccc(C)cc1` [Compound 1-142, (2S,3R)-3-((2-amino-6-methylpyridin-4-yl)methyl)-N2-(1-methyl-1H-pyrazol-3-yl)-N1-((R)-1-(4-methylphenyl)propyl)-N2-methyl-4-oxoazetidine-1,2-dicarboxamide] was less than 10 nM.
`CC[C@@H](NC(=O)N1C(=O)[C@H](Cc2cc(C)nc(N)c2)[C@H]1C(=O)N(C)c1ccn(C)n1)c1ccc(C)c(C)c1` [Compound 1-145, (2S,3R)-3-((2-amino-6-methylpyridin-4-yl)methyl)-N2-(1-methyl-1H-pyrazol-3-yl)-N1-((R)-1-(3,4-dimethylphenyl)propyl)-N2-methyl-4-oxoazetidine-1,2-dicarboxamide]: the IC50 was less than 10 nM.
To `CC[C@@H](NC(=O)N1C(=O)[C@H](Cc2cc(C)nc(N)c2)[C@H]1C(=O)N(C)c1ccn(C)n1)c1ccc(C)c(Cl)c1` [Compound 1-147, (2S,3R)-3-((2-amino-6-methylpyridin-4-yl)methyl)-N2-(1-methyl-1H-pyrazol-3-yl)-N1-((R)-1-(3-chloro-4-methylphenyl)propyl)-N2-methyl-4-oxoazetidine-1,2-dicarboxamide] belongs less than 10 nM.
